According to patent publication US4223021A, “Synthetic peptides having pituitary growth hormone releasing activity” (priority 1979, dated 1980):
Residues, ends and D or L forms follow the SMILES beside them.

System: pituitaries removed from 20 day old female rats
Assay: In vitro growth hormone release study (incubated rat pituitaries, GH radioimmunoassay)
Format: cell-based
Details: mean ± SEM, control -198± 85
Method: Female rats of the CD-1 strain were housed in a constant temperature room at 24° C. with 14 hours light and 10 hours darkness. The rats were fed Purina brand rat chow ab libitum.
All studies were started between 0800 and 1000 hours.
Pituitaries were removed from 20 day old female rats. Two pituitaries were incubated at 36° C. in 1 ml of lactated Ringer's solution in 10 ml polytetrafluoroethylene beakers in a Dubnoff Shaker (90 cycles/min.). The pituitaries were incubated a total of 4 hours (P1, P2, I3, and I4). After two successive one hour preincubation periods (P1, P2), the peptide was added to the incubation medium hourly for 2 hours (I3, I4).
This in vitro study was performed in triplicate and a standard radioimmunoassay of growth hormone present in the incubation medium was performed in duplicate. The hormonal activity was calculated as the difference (Δ) of growth hormone (GH) levels between I3, I4 and P2, i.e., (I3 -P2) and (I4 -P2). P values were calculated by Students' t test using six growth hormone values for each value recorded.
The growth hormone radioimmunoassay reagents were distributed by the National Institute of Arthritis and […] (NIAMDD) program. The growth hormone values were calculated in terms of nanograms (ng) of a rat standard with a growth hormone potency of 0.61 units/mg.

Structure (SMILES): NC(=O)[C@@H](Cc1ccccc1)NC(=O)[C@H](Cc1ccccc1)NC(=O)[C@@H](Cc1c[nH]c2ccccc12)NC(=O)CNC(=O)[C@@H](N)Cc1ccc(O)cc1 [H2 N-Tyr-Gly-D-Trp-Phe-D-Phe-CONH2] (HELM PEPTIDE1{Y.G.[dW].F.[dF].[am]}$$$$V2.0)
- In vitro growth hormone release (ΔGH, I3/I4 minus P2) (1μg peptide, P value not significant): 200 ± 167 ngΔGH/ml incubation medium
- In vitro growth hormone release (ΔGH, I3/I4 minus P2) (10μg peptide, P value <0.001): 1384 ± 120 ngΔGH/ml incubation medium
- In vitro growth hormone release (ΔGH, I3/I4 minus P2) (100μg peptide, P value <0.001): 1196 ± 194 ngΔGH/ml incubation medium
